According to patent publication US12257287B2, “Glucagon-derived peptide and use thereof” (Tianjin Institute of Pharmaceutical Research Co., Ltd., priority 2018, dated 2025):
Converted amounts (≈) assume the structure as drawn. Numbered stars: 1 amine (or outer) side, 2 acyl side, 3 side chain; on linkers, the order of the positions; unused ones are H or OH. Square brackets hold non-standard residues; d marks the D form. Side chains are listed from the residue outwards. Peptide text beside a SMILES is read from it. * marks the point of attachment. C20 diacid = O=C(O)CCCCCCCCCCCCCCCCCCC(=O)*; C18 diacid = O=C(O)CCCCCCCCCCCCCCCCC(=O)*; γGlu = O=C(O)[C@H](CCC(=O)[*:2])N[*:1]; AEEA = NCCOCCOCC(=O)O; Aib = CC(C)(N)C(=O)O

Tests used:
[1] = physchem; assay type: physicochemical
Description: 2 mg of the compound was weighed, dissolved in 1 ml of phosphate buffer solutions with different concentrations (10, 20 mM) and different pH values (7.5, 8.0), and centrifuged, and supernatant was taken. The peak area was measured by HPLC (chromatographic column: Aeris widepore XB-C18 3.6 mm, 4.6×150 mm; mobile phase: A: 0.05% TFA, B: 95% acetonitrile; detection wavelength: 214 nm) and compared with a corresponding sample standard solution, and the relative concentration of the test sample solution is calculated.

[2] = Accelerated chemical stability in injection solvent system (HPLC-UV); assay type: physicochemical; conditions: 14 days, phosphate buffer pH 7.3 with Tween 80 and phenol, main peak area vs day 0
Description: The chemical stability of the compounds of the present invention in injection solution systems was evaluated by an accelerated stability test. Methods: an appropriate amount of compound of Example 1 was weighed, and dissolved in 10 mM pH8.5 sodium hydrogen phosphate buffer. The final pH value of the solution was adjusted to 7.3 with 0.1 N hydrochloric acid, and proper amounts of Tween 80 and phenol were added. The mixture was placed at 10° C. and 37° C. for 14 days, and detected by HPLC-UV. The main peak area was obtained by peak area normalization method, and the changes compared with day 0 were investigated. The HPLC detection method was the same as that in Example 6, and the mobile phase gradient was appropriately adjusted according to the situation of chromatographic peak separation.

[3] = Short-term administration: food intake and body weight in DIO mice; assay type: in vivo; conditions: 30 nmol/kg once every 24 h, twice, − decrease; for Rate of change in food intake (%): at 48 hours vs day before administration; for Body weight change: at 48 hours
Description: Method: diet-induced obese mice (DIO) with an average body weight of 52.5 g were divided into model control and test groups, 5 mice in each group. The test samples were dissolved in 10 mM PBS of pH7.4, injected once every 24 h at a dose of 30 nmol/kg, and administered twice. The model group was injected with solvent. Changes in food intake and body weight at 48 hours were measured, and the change rates were calculated compared to the day before administration.

[4] = target: T1, GC receptor (Homo sapiens, UniProt P47871); assay: GC receptor mediated cAMP production in vitro (HEK293 cells transfected with GC receptor); assay type: cell-based; conditions: 20 min at 37° C., read-out: GCGR (nM EC50)
T1 construct: expressed in transfected cells; host or cells: HEK293 cells
Description: The medium was removed, the cells were lysed, and cAMP values were detected referring to the detection method described for the assay kit.

[5] = pH 7.5, Solubility, pH 7.5, 10 mM phosphate buffer
[6] = pH 7.5, Solubility, pH 7.5, 20 mM phosphate buffer
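Throughout, for Solubility: compound added at 2 mg per mL of phosphate buffer, with the dissolved amount determined in the supernatant.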

T1 sequence (P47871 26-477): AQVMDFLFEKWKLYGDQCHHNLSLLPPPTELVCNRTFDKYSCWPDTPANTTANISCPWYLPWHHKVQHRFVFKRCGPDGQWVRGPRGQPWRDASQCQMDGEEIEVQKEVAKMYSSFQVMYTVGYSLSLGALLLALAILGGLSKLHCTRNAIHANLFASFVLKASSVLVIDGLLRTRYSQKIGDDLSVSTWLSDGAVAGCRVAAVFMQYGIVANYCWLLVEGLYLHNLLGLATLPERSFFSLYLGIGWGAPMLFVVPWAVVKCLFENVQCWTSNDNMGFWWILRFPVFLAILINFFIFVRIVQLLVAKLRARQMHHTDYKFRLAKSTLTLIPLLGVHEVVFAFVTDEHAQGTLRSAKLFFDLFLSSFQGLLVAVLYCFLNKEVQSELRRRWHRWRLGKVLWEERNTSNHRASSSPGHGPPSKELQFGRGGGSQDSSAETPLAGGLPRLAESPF

Compound	solubility [1, 5]	solubility [1, 6]	Change in purity % (10° C.) ([2]; 10° C.)	Change in purity % (37° C.) ([2]; 37° C.)	Rate of change in food intake (%) [3]	Body weight change [3]	EC50 [4]	solubility ([1]; pH 8, Solubility, pH 8.0, 10 mM phosphate buffer)	solubility ([1]; pH 8, Solubility, pH 8.0, 20 mM phosphate buffer)
CC(C)C[C@H](NC(=O)[C@H](Cc1c[nH]c2ccccc12)NC(=O)[C@H](C)NC(=O)[C@@H](NC(=O)[C@H](Cc1ccccc1)NC(=O)[C@H](CCC(=O)O)NC(=O)[C@H](CCCCN)NC(=O)[C@H](C)NC(=O)[C@H](C)NC(=O)[C@H](CCCNC(=N)N)NC(=O)[C@H](CCC(=O)O)NC(=O)[C@H](CC(=O)O)NC(=O)[C@H](CC(C)C)NC(=O)[C@H](Cc1ccc(O)cc1)NC(=O)[C@H](CCCCN)NC(=O)[C@H](CO)NC(=O)[C@H](CCCCNC(=O)COCCOCCNC(=O)COCCOCCNC(=O)CC[C@H](NC(=O)CCCCCCCCCCCCCCCCCCC(=O)O)C(=O)O)NC(=O)[C@H](CC(=O)O)NC(=O)[C@H](CO)NC(=O)[C@@H](NC(=O)[C@H](Cc1ccccc1)NC(=O)[C@@H](NC(=O)CNC(=O)[C@H](CCC(N)=O)NC(=O)C(C)(C)NC(=O)[C@@H](N)Cc1c[nH]cn1)[C@@H](C)O)[C@@H](C)O)C(C)C)C(=O)N[C@@H](CCC(=O)O)C(=O)N[C@@H](C)C(=O)NCC(=O)NCC(=O)N1CCC[C@H]1C(=O)N[C@@H](CO)C(=O)N[C@@H](CO)C(=O)NCC(N)=O [Compound 13] (H-H[Aib]QGTFTSDK([AEEA-AEEA-γGlu-C20 diacid])SKYLDERAAKEFVAWLEAGGPSSG-NH2; N-terminus assumed)	> 2000 µg/mL	> 2000 µg/mL	−2.8%	−6.9%	−67%	-2.3 g	0.033 nM	–	–
CC[C@H](C)[C@H](NC(=O)[C@H](Cc1ccccc1)NC(=O)[C@H](CCC(=O)O)NC(=O)[C@H](CCCCN)NC(=O)[C@H](C)NC(=O)[C@H](C)NC(=O)[C@H](CCCNC(=N)N)NC(=O)[C@H](CCC(=O)O)NC(=O)[C@H](CC(=O)O)NC(=O)[C@H](CC(C)C)NC(=O)[C@H](Cc1ccc(O)cc1)NC(=O)[C@H](CCCCN)NC(=O)[C@H](CO)NC(=O)[C@H](CCCCNC(=O)COCCOCCNC(=O)COCCOCCNC(=O)CC[C@H](NC(=O)CCCCCCCCCCCCCCCCC(=O)O)C(=O)O)NC(=O)[C@H](CC(=O)O)NC(=O)[C@H](CO)NC(=O)[C@@H](NC(=O)[C@H](Cc1ccccc1)NC(=O)[C@@H](NC(=O)CNC(=O)[C@H](CCC(N)=O)NC(=O)[C@H](CO)NC(=O)[C@@H](N)Cc1c[nH]cn1)[C@@H](C)O)[C@@H](C)O)C(=O)N[C@@H](C)C(=O)N[C@@H](Cc1c[nH]c2ccccc12)C(=O)N[C@@H](CC(C)C)C(=O)N[C@@H](CCC(=O)O)C(=O)N[C@@H](C)C(=O)NCC(=O)NCC(=O)N1CCC[C@H]1C(=O)N[C@@H](CO)C(=O)N[C@@H](CO)C(=O)NCC(N)=O [Compound 36] (H-HSQGTFTSDK([AEEA-AEEA-γGlu-C18 diacid])SKYLDERAAKEFIAWLEAGGPSSG-NH2; N-terminus assumed)	–	–	–	–	−46%	-1.7 g	0.069 nM	–	–
CCCCCCCCCCCCCCCC(=O)N[C@@H](CCC(=O)N[C@@H](CCC(=O)NCCCC[C@H](NC(=O)[C@H](CC(=O)O)NC(=O)[C@H](CO)NC(=O)[C@@H](NC(=O)[C@H](Cc1ccccc1)NC(=O)[C@@H](NC(=O)CNC(=O)[C@H](CCC(N)=O)NC(=O)C(C)(C)NC(=O)[C@@H](N)Cc1c[nH]cn1)[C@@H](C)O)[C@@H](C)O)C(=O)N[C@@H](CO)C(=O)N[C@@H](CCCCN)C(=O)N[C@@H](Cc1ccc(O)cc1)C(=O)N[C@@H](CC(C)C)C(=O)N[C@@H](CCC(=O)O)C(=O)N[C@@H](CCC(=O)O)C(=O)N[C@@H](CCCNC(=N)N)C(=O)N[C@@H](C)C(=O)N[C@@H](C)C(=O)N[C@@H](CCCCN)C(=O)N[C@@H](CCC(=O)O)C(=O)N[C@@H](Cc1ccccc1)C(=O)N[C@H](C(=O)N[C@@H](C)C(=O)N[C@@H](Cc1c[nH]c2ccccc12)C(=O)N[C@@H](CC(C)C)C(=O)N[C@@H](CCC(=O)O)C(=O)NCC(=O)NCC(=O)N1CCC[C@H]1C(=O)N[C@@H](CO)C(=O)N[C@@H](CO)C(=O)NCC(N)=O)[C@@H](C)CC)C(=O)O)C(=O)O [Compound 21] (HELM PEPTIDE1{H.[Aib].Q.G.T.F.T.S.D.K.S.K.Y.L.E.E.R.A.A.K.E.F.I.A.W.L.E.G.G.P.S.S.G.[am]}|PEPTIDE2{[CCCCCCCCCCCCCCCC(=O)[*:2]].[gGlu].[gGlu]}$PEPTIDE1,PEPTIDE2,10:R3-3:R2$$$V2.0; N-terminus assumed)	> 2000 µg/mL	> 2000 µg/mL	–	–	–	–	0.175 nM	–	–
CC(C)C[C@H](NC(=O)[C@H](Cc1c[nH]c2ccccc12)NC(=O)[C@H](CCC(=O)O)NC(=O)[C@@H](NC(=O)[C@H](Cc1ccccc1)NC(=O)[C@H](CCC(=O)O)NC(=O)[C@H](CCCCNC(=O)COCCOCCNC(=O)COCCOCCNC(=O)CC[C@H](NC(=O)CCCCCCCCCCCCCCCCC(=O)O)C(=O)O)NC(=O)[C@H](C)NC(=O)[C@H](CCCCN)NC(=O)[C@H](CCCNC(=N)N)NC(=O)[C@H](CCC(=O)O)NC(=O)[C@H](CC(=O)O)NC(=O)[C@H](CC(C)C)NC(=O)[C@H](Cc1ccc(O)cc1)NC(=O)[C@H](CCCCN)NC(=O)[C@H](CO)NC(=O)[C@H](Cc1ccc(O)cc1)NC(=O)[C@H](CC(=O)O)NC(=O)[C@H](CO)NC(=O)[C@@H](NC(=O)[C@H](Cc1ccccc1)NC(=O)[C@@H](NC(=O)CNC(=O)[C@H](CCC(N)=O)NC(=O)C(C)(C)NC(=O)[C@@H](N)Cc1c[nH]cn1)[C@@H](C)O)[C@@H](C)O)C(C)C)C(=O)N[C@@H](CCC(=O)O)C(=O)N[C@@H](C)C(=O)NCC(=O)NCC(=O)N1CCC[C@H]1C(=O)N[C@@H](CO)C(=O)N[C@@H](CO)C(=O)NCC(N)=O [Compound 42] (H-H[Aib]QGTFTSDYSKYLDERKAK([AEEA-AEEA-γGlu-C18 diacid])EFVEWLEAGGPSSG-NH2; N-terminus assumed)	1720 µg/mL (≈ 380 µM)	1510 µg/mL (≈ 334 µM)	–	–	–	–	0.024 nM	> 2000 µg/mL	> 2000 µg/mL
CC[C@H](C)[C@H](NC(=O)[C@H](Cc1ccccc1)NC(=O)[C@H](CCC(=O)O)NC(=O)[C@H](CCCCNC(=O)COCCOCCNC(=O)COCCOCCNC(=O)CC[C@H](NC(=O)CCCCCCCCCCCCCCCCC(=O)O)C(=O)O)NC(=O)[C@H](C)NC(=O)[C@H](C)NC(=O)[C@H](CCCNC(=N)N)NC(=O)[C@H](CCC(=O)O)NC(=O)[C@H](CCC(=O)O)NC(=O)[C@H](CC(C)C)NC(=O)[C@H](Cc1ccc(O)cc1)NC(=O)[C@H](CCCCN)NC(=O)[C@H](CO)NC(=O)[C@H](Cc1ccc(O)cc1)NC(=O)[C@H](CC(=O)O)NC(=O)[C@H](CO)NC(=O)[C@@H](NC(=O)[C@H](Cc1ccccc1)NC(=O)[C@@H](NC(=O)CNC(=O)[C@H](CCC(N)=O)NC(=O)C(C)(C)NC(=O)[C@@H](N)Cc1c[nH]cn1)[C@@H](C)O)[C@@H](C)O)C(=O)N[C@@H](C)C(=O)N[C@@H](Cc1c[nH]c2ccccc12)C(=O)N[C@@H](CC(C)C)C(=O)N[C@@H](CCC(=O)O)C(=O)N[C@@H](C)C(=O)NCC(=O)NCC(=O)N1CCC[C@H]1C(=O)N[C@@H](CO)C(=O)N[C@@H](CO)C(=O)NCC(N)=O [Compound 28] (H-H[Aib]QGTFTSDYSKYLEERAAK([AEEA-AEEA-γGlu-C18 diacid])EFIAWLEAGGPSSG-NH2; N-terminus assumed)	–	–	–	–	−49%	-1.3 g	0.026 nM	–	–
CCCCCCCCCCCCCCCC(=O)N[C@@H](CCC(=O)N[C@@H](CCC(=O)NCCCC[C@H](NC(=O)[C@H](C)NC(=O)[C@H](CCCCN)NC(=O)[C@H](CCCNC(=N)N)NC(=O)[C@H](CCC(=O)O)NC(=O)[C@H](CC(=O)O)NC(=O)[C@H](CC(C)C)NC(=O)[C@H](Cc1ccc(O)cc1)NC(=O)[C@H](CCCCN)NC(=O)[C@H](CO)NC(=O)[C@H](Cc1ccc(O)cc1)NC(=O)[C@H](CC(=O)O)NC(=O)[C@H](CO)NC(=O)[C@@H](NC(=O)[C@H](Cc1ccccc1)NC(=O)[C@@H](NC(=O)CNC(=O)[C@H](CCC(N)=O)NC(=O)C(C)(C)NC(=O)[C@@H](N)Cc1c[nH]cn1)[C@@H](C)O)[C@@H](C)O)C(=O)N[C@@H](CCC(=O)O)C(=O)N[C@@H](Cc1ccccc1)C(=O)N[C@H](C(=O)N[C@@H](CCC(=O)O)C(=O)N[C@@H](Cc1c[nH]c2ccccc12)C(=O)N[C@@H](CC(C)C)C(=O)N[C@@H](CCC(=O)O)C(=O)NCC(=O)NCC(=O)N1CCC[C@H]1C(=O)N[C@@H](CO)C(=O)N[C@@H](CO)C(=O)NCC(N)=O)C(C)C)C(=O)O)C(=O)O [Compound 69] (HELM PEPTIDE1{H.[Aib].Q.G.T.F.T.S.D.Y.S.K.Y.L.D.E.R.K.A.K.E.F.V.E.W.L.E.G.G.P.S.S.G.[am]}|PEPTIDE2{[CCCCCCCCCCCCCCCC(=O)[*:2]].[gGlu].[gGlu]}$PEPTIDE1,PEPTIDE2,20:R3-3:R2$$$V2.0; N-terminus assumed)	> 2000 µg/mL	> 2000 µg/mL	–	–	–	–	0.261 nM	–	–
